Experiments:
[1] = system: pds-bsα-bsβ VIGS petunia flowers; assay: Emission of volatiles from pds-bsα-bsβ VIGS petunia flowers; format: in vivo, Petunia hybrida; conditions: 2-day-old VIGS flowers, volatiles collected 20:00 to 21:00, n=6
Protocol: Petunia hybrida cv. Mitchell diploid (W115, Ball Seed Co., Oxford, Canada) plants were grown under standard greenhouse condition with a light period from 6:00 to 21:00 hour. To link the simultaneous downregulation of PhBSα and PhBSβ6 genes via virus induced gene silencing (VIGS) to the silencing of a marker gene, a previously generated pTRV2-PDS construct containing a 300 bp fragment of Nicotiana benthamiana Phytoene Desaturase (PDS) (CDS nucleotides 580˜879; SEQ ID NO: 11) was used (deposited with the National Center for Biotechnology Information (NCBI) GenBank and having the accession number DQ469932.1 (accepted Dec. 4, 2007)). See Spitzer et al., Reverse genetics of floral scent: Application of tobacco rattle virus-based gene silencing in petunia, Plant Physiology 145: 1241-1250 (2007). The N. benthamiana PDS fragment shared 94.3% sequence identity with P. axillaris PDS gene.
Next, a 301 bp fragment of PhBSα (CDS nucleotides 3˜303 of SEQ ID NO: 3) and a 301 bp fragment of PhBSβ6 (CDS nucleotides 3˜303 of SEQ ID NO: 4) were tandemly cloned downstream of the PDS fragment in a pTRV2-PDS plasmid using ClonExpress II One Step Cloning Kit (Vazyme Biotech Co., Piscataway, NJ), yielding the final construct pTRV2-PDS-PhBSαp.
All binary vectors, including pTRV1, deposited with the NCBI GenBank and having accession number AF406990 (accepted Jun. 11, 2002), pTRV2-PDS and pTRV2-PDS-PhBSαp, were transformed into Agrobacterium tumefaciens strain GV3101. Single colonies for each construct were cultured at 28° C. in Luria-Bertani (LB) medium containing 50 mg/L rifampicin, 50 mg/L gentamycin, and 50 mg/L kanamycin to an optical density at a wavelength of 600 nm (OD600) of 2.4.
Cells were pelleted, washed with infiltration buffer (50 mM MES, pH 5.7, 2 mM Na3PO4, 0.5% glucose and 200 μM acetosyringone), and incubated in the same buffer for 2 hours at room temperature. Yoo et al., An alternative pathway contributes to phenylalanine biosynthesis in plants via a cytosolic tyrosine:phenylpyruvate aminotransferase, Nature Communications 4: 2833 (2013). […]
Petunia flower volatiles were collected by a closed-loop stripping method and analyzed by gas chromatography mass spectrometry (GC-MS) as described in Qian et al., Completion of the cytosolic post-chorismate phenylalanine biosynthetic pathway in plants, Nature Communications 10: 15 (2019), with minor modifications. […] The extracts were pooled together and concentrated to about 200 μL under a mild stream of nitrogen gas, and samples were analyzed on an Agilent 7890B-5977B gas chromatography mass spectrometry (GC-MS) system (Agilent Technologies, Inc., Santa Clara, CA) using an analytical method translated from an established method with the Agilent 6890N-5975B GC-MS system as previously described. […]

[2] = system: Prunus dulcis (almond) benzaldehyde synthase (PdBS), recombinant heterodimer PdBSα (SEQ ID NO: 6) / PdBSβ (SEQ ID NO: 9), wild type, MBP-tagged; assay: Kinetic parameters of recombinant PdBS (BS activity assay, HPLC; benzoyl-CoA + NADPH to benzaldehyde); format: biochemical; conditions: measured at 4 mM NADPH
Protocol: (§1) The reaction was initiated by adding a protein and incubated at 28° C. for 30 minutes, and the reactions were then terminated by adding 100 μL of 100% ice-cold methanol (MeOH). The BS enzyme assays were performed at an appropriate enzyme concentration so that reaction velocity was proportional to enzyme concentration and linear during the incubation time period. Km and Vmax were determined by non-linear fit to the Michaelis-Menten equation using Graphpad Prism, v8.2.0.
(§2) Triplicate assays were performed for all data points.
(§3) After centrifugation at 15,000 g for 20 minutes, 5 μL of the supernatant were subjected to high-performance liquid chromatography (HPLC) analysis using an Agilent 1260 Infinity II system (Agilent Technologies, Inc., Santa Clara, CA) equipped with an InfinityLab Poroshell 120 EC-C18 column (3.0×150 mm, 2.7 μm) maintained at 35° C. Products were separated with a 15-minute linear gradient of 10% aqueous acetonitrile solution to 100% acetonitrile and monitored at 248 nm using a diode array detector (DAD). Benzaldehyde was identified by comparing the retention time and absorption spectrum with authentic standard.
Quantitation was achieved by using standard curve generated from authentic standard and product verification was performed by GC-MS. Namely, crude protein extracts were obtained by extraction of petunia petal tissue with buffer A (3:1 [v/w] buffer/tissue). After centrifugation of slurry at 15,000 g for 20 minutes, the supernatant was desalted with Econo-Pac 10DG Columns (Bio-Rad Laboratories, Inc., Hercules, CA) according to the manufacturer's protocol and 20 μL of desalted protein was used in BS activity assays. The reaction was performed for 30 minutes at 28° C. and the product was extracted with 200 μL DCM containing 1 μg naphthalene (internal standard). After centrifugation at 15,000 g for 20 minutes, 2 μL of the bottom DCM phase was injected in GC-MS. […]

[3] = biological target: T1, Solanum lycopersicum (tomato) benzaldehyde synthase (SlBS), recombinant heterodimer SlBSα (SEQ ID NO: 7) / SlBSβ (SEQ ID NO: 10), wild type, MBP-tagged (Solanum lycopersicum, UniProt A0A3Q7HAN1+A0A3Q7ILR9); assay: Kinetic parameters of recombinant SlBS (BS activity assay, HPLC; benzoyl-CoA + NADPH to benzaldehyde); format: biochemical; conditions: measured at 4 mM NADPH; pH 6.5, 28° C.
T1 sequence (A0A3Q7ILR9 with tags, fused parts or gaps): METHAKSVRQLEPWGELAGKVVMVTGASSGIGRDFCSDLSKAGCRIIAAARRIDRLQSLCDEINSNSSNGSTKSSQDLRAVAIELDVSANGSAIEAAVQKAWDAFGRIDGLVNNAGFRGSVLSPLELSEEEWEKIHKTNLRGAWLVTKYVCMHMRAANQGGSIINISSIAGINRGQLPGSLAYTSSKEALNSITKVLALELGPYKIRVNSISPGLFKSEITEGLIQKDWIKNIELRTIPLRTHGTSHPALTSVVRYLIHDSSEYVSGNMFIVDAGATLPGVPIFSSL
T1 sequence (A0A3Q7HAN1 1-266): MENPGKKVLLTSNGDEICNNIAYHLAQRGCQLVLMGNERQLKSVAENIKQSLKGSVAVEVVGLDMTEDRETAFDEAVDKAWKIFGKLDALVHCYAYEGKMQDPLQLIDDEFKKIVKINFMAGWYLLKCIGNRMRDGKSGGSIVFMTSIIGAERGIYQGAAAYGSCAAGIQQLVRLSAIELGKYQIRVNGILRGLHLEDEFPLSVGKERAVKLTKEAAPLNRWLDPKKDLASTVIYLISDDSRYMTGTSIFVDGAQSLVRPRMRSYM
Protocol: as §1, §2, §3
(§4) Quantitation was achieved by using standard curve generated from authentic standard and product verification was performed by GC-MS. Namely, crude protein extracts were obtained by extraction of petunia petal tissue with buffer A (3:1 [v/w] buffer/tissue). […]

[4] = system: Petunia hybrida benzaldehyde synthase (PhBS), recombinant heterodimer PhBSα (SEQ ID NO: 1) / PhBSβ (SEQ ID NO: 2), wild type, MBP-tagged; assay: Kinetic parameters of recombinant PhBS (BS activity assay, HPLC; benzoyl-CoA + NADPH to benzaldehyde); format: biochemical; conditions: measured at 4 mM NADPH
Protocol: as §1, §2, §3, §4

[5] = system: benzaldehyde synthase (BS) activity in petunia flower crude protein extracts; assay: BS activity in petunia flower crude protein extracts with different substrates and cofactors (GC-MS); format: biochemical, Petunia hybrida; conditions: substance supplied as cofactor with benzoyl-CoA or in place of benzoyl-CoA; 30 minutes at 28° C.
Protocol: The crude protein extracts were obtained by extraction of petunia petal tissue with buffer A (3:1 [v/w] buffer/tissue). After centrifugation of slurry at 15,000 g for 20 minutes, the supernatant was desalted with Econo-Pac 10DG Columns (Bio-Rad, Hercules, CA) according to the manufacturer's protocol and 20 μL of desalted protein was used in the activity assays. The reaction was performed for 30 minutes at 28° C. and the product was extracted with 200 μL DCM containing 1 μg naphthalene (internal standard). After centrifugation at 15,000 g for 20 minutes, 2 μL of the bottom DCM phase was injected in GC-MS, with results shown in FIG. 3A. The compounds labeled in FIG. 3A with numbers are (1) benzaldehyde, (2) benzylalcohol, (3) internal standard (naphthalene), and (4) benzylbenzoate and the different assay mixtures described above are identified with their above-associated letters.

[6] = assuming one catalytic center per heterodimer of BS

Compound: OCc1ccccc1 [Benzylalcohol (D5, 113), Benzylalcohol]
- reduction of emission in pds-bsα-bsβ flowers relative to pds control [1]: 62.9%

Compound: O=CCc1ccccc1 [Phenylacetaldehyde (D7 + D8, 97 + 98), Phenylacetaldehyde]
- reduction of emission in pds-bsα-bsβ flowers relative to pds control [1]: 41.2%

Compound: CC(C)(COP(=O)(O)OP(=O)(O)OC[C@H]1O[C@@H](n2cnc3c(N)ncnc32)[C@H](O)[C@@H]1OP(=O)(O)O)[C@@H](O)C(=O)NCCC(=O)NCCSC(=O)c1ccccc1 [benzoyl-CoA]
- kcat (benzoyl-CoA) [2, 6]: 5.26 ± 0.20 s⁻¹
- Vmax (benzoyl-CoA) ([2]; pH 6.5, 28° C.): 35.4 ± 1.3 nKat/mg
- Km ([2]; read-out: Km for benzoyl-CoA, apparent, pH 6.5, 28° C.): 629 ± 67.7 µM
- Vmax (benzoyl-CoA) [3]: 13.2 ± 3.0 nKat/mg
- kcat (benzoyl-CoA) [4, 6]: 9.39 ± 0.40 s⁻¹
- Vmax (benzoyl-CoA) ([4]; pH 6.5, 28° C.): 63.5 ± 2.7 nKat/mg

Compound: O=C(OCc1ccccc1)c1ccccc1 [benzylbenzoate]
- reduction of emission in pds-bsα-bsβ flowers relative to pds control [1]: 35.6%

Compound: O=Cc1ccccc1 [Benzaldehyde (D5, 111), Benzaldehyde]
- reduction of emission in pds-bsα-bsβ flowers relative to pds control [1]: 68.3%

Compound: nicotinamide adenine dinucleotide phosphate [NADPH]
- benzaldehyde formation by crude extracts [5]: Efficient conversion of benzoyl-CoA to benzaldehyde

Compound: NC(=O)c1ccc[n+]([C@@H]2O[C@H](COP(=O)([O-])OP(=O)(O)OC[C@H]3O[C@@H](n4cnc5c(N)ncnc54)[C@H](OP(=O)(O)O)[C@@H]3O)[C@@H](O)[C@H]2O)c1 [NADP^+]
- benzaldehyde formation by crude extracts [5]: No benzaldehyde was formed

Compound: O=C(O)c1ccccc1 [benzoic acid]
- benzaldehyde formation by crude extracts [5]: No benzaldehyde was formed

Compound: NC(=O)c1ccc[n+]([C@@H]2O[C@H](COP(=O)([O-])OP(=O)(O)OC[C@H]3O[C@@H](n4cnc5c(N)ncnc54)[C@H](O)[C@@H]3O)[C@@H](O)[C@H]2O)c1 [NAD^+]
- benzaldehyde formation by crude extracts [5]: No benzaldehyde was formed

Compound: O=C(O)C=Cc1ccccc1 [cinnamic acid]
- benzaldehyde formation by crude extracts [5]: No benzaldehyde was formed
